The results in this text go back to patent US20220054387A1, “COMPOSITION COMPRISING AT LEAST ONE GLYCOSYLATED FLAVONOID AND ITS USE IN COSMETICS OR DERMATOLOGY” (PURALLY, priority 2020, published 2022).

For one series, the system named is IL-31. The series is described as follows: IL-31 release by keratinocytes exposed to benzo[a]pyrene and blue light (ELISA). In kind it is cell-based, human. As to the method:
The cells used in this study are primary cultures of normal human keratinocytes (NHKs) extracted after skin surgery of a donor.
They were cultured in a complete KSFM environment: Keratinocyte-SFM (17005-31, Gibco) with L-Glutamine, supplemented with a recombinant human epidermal growth factor (EGFhr, 10450-013, Gibco), extract of bovine pituitary gland (BPE, 13028-014, Gibco) and 1% of streptomycin penicillin (15070-063, Gibco) at 37° C. in 5% CO2 atmosphere up until 80% confluence.
The keratinocytes cultured according to Example 1 are exposed either to benzo[a]pyrene (B[a]P) at 20 μμM, or to blue light (450 nm) at 40 J/cm^2 or to the combination of both at the same doses. A myricitrin treatment with amounts ranging from 10 μμM to 50 μμM is applied to cells that have previously received the B[a]P and blue light combination.
After 24 hours' treatment, an assay of the interleukin 31 (IL-31) released by the cells is performed, via an immunoassay kit (ELISA.) The IL-31 assay was performed with the human IL-31 ELISA MAX™ Deluxe Set (445704, Biolegend.)
For orientation: In an ELISA, binding on a coated surface is turned into a signal by an enzyme label.

Series [1] relates to normal human keratinocytes. The series is described as follows: Keratinocyte viability assay (XTT). In kind it is cell-based. To be noted: myricitrin 0.21 to 50 μμM, 24 hours. As to the method:
The cells used in this study are primary cultures of normal human keratinocytes (NHKs) extracted after skin surgery of a donor. They were cultured in a complete KSFM environment: Keratinocyte-SFM (17005-31, Gibco) with L-Glutamine, supplemented with a recombinant human epidermal growth factor (EGFhr, 10450-013, Gibco), extract of bovine pituitary gland (BPE, 13028-014, Gibco) and 1% of streptomycin penicillin (15070-063, Gibco) at 37° C. in 5% CO2 atmosphere up until 80% confluence. On D0, normal human keratinocytes are incubated in 96-well plates in a culture medium. The cells are left to stabilize for 24 hours at 37° C. in 5% CO2 atmosphere, as described in Example 1. […] The NHK viability was assessed using a Cell Proliferation Kit II (XTT) (11465015001, Roche) in accordance with the manufacturer's instructions. The XTT system, a colorimetric method, is a test used to quantify mitochondrial activity. […] The formazan derivate is measured by spectrophotometry (at 450 nm with 650 nm of reference.) For each condition, optical density data averages (OD, absorbance) are calculated. The viability of the treated cells is expressed as a percentage of untreated control batch: a treatment that reduces the viability of the cells to below the comparative limit of 80% of mitochondrial activity in the untreated control batch, is considered cytotoxic for the cells. […]
On the technique in general: Formazan colour is commonly taken as a measure of viable cells.

Molecules are shown by their SMILES.

`c1ccc2c(c1)cc1ccc3cccc4ccc2c1c34` [benzo[a]pyrene, reference compound]: the “increase in IL-31 by the keratinocytes” value in the series with IL-31 (benzo[a]pyrene 20 μμM combined with blue light (450 nm) 40 J/cm^2) is given as “+111%”.
Turning to `C[C@@H]1O[C@@H](Oc2c(-c3cc(O)c(O)c(O)c3)oc3cc(O)cc(O)c3c2=O)[C@H](O)[C@H](O)[C@H]1O` [myricitrin, 5,7-dihydroxy-3-[(2S,3R,4R,5R,6S)-3,4,5-trihydroxy-6-methyloxan-2-yl]oxy-2-(3,4,5-trihydroxyphenyl)chromen-4-one], in the series with IL-31 (myricitrin as of 20 μM, cells pre-treated with 20 μM of B[a]P and 40 J/cm^2 of blue light, 24 hours' treatment), the “decrease in the production of IL-31” value is reported as −100%. Further, the “toxic effect on keratinocytes (cell viability, XTT)” value in series [1] was “no toxic effect”.
